{"source": "patent US20260034135A1", "about": "“USE OF N6-BENZYLAMINOPURINE AS AN APPETITE SUPPRESSANT” (THE GOVERNING COUNCIL OF THE UNIVERSITY OF TORONTO, priority 2022, published 2026)", "key": {"[1]": {"settings": "rats fed BAP for 13 weeks, EPA study, no data shown; cited from earlier work"}, "[2]": {"test_system": "AMPK", "experiment": "AMPK phosphorylation by Western blot in mHypoE-46", "format": "cell-based, mouse", "settings": "100 μM BAP, 15 min, mHypoE-46", "experimental": "(§1) mHypoE-46 cells were serum starved in 5.5 mM glucose (LG) DMEM for 1 hour prior to treatment with vehicle (0.1% DMSO), 100 µM BAP or H20, […] 5-Aminoimidazole-4-carboxamide ribonucleotide (AICAR) or 0 mM glucose DMEM. Protein was harvested using 1× cell lysis buffer (Cell Signaling Technologies, Inc, CST) containing protease and phosphatase inhibitors. A total of 30 μg protein was separated on a 12% SDS-polyacrylamide gels and transferred onto PVDF membranes. Membranes were blocked in 5% milk dissolved in Tris-buffered saline with Tween 20 (TBS-T) for 1 h and incubated with primary antibody overnight at 4° C. phospho-AMPKα (Thr172; cat. 2532S, CST), and total AMPKα (cat. 2535S, CST); phospho-p70-S6K (Thr389; cat. 9205S, CST) and total p70-S6K (cat. 9202S, CST); insulin receptor ß (cat. 3025S, CST); phospho-AKT (Ser473; cat. 9271S, CST) and total AKT (cat. 9272S, CST); phospho-ERK1/2 (Thr202/Tyr204; cat. 9101, CST) and total ERK (cat. 4695, CST) were diluted 1:1000 in 5% milk in TBS-T. Membranes were washed and incubated with secondary HRP-linked antirabbit antibody (1:7500 in 5% milk in TBS-T, CST) for 1 h, washed, and imaged using the Signal Fire ECL Reagent (CST) on the iBright 1500 Imaging System (Thermofisher). Protein density was quantified using ImageJ or the iBright Imaging System."}, "[3]": {"test_system": "mHypoE-46 cell line", "experiment": "RNA-sequencing (RNA-seq) of mHypoE-46 exposed to BAP", "format": "cell-based, mouse", "settings": "100 μM BAP", "experimental": "To assess global mRNA gene expression changes, we exposed the mHypoE-46 line to 100 μM BAP for 4 and 16 h and assess mRNA expression via RNA-sequencing (RNA-seq). […] It is already known that a decrease in mTORC1 signaling results in a decrease in Npy through decreases in p70-S6K activity (18-20). […] Specifically, the gene expression of the upstream inhibitors of mTORC1, sestrin2 (Sesn2) (21) and tuberous sclerosis complex 2 (Tsc2) were both increased with BAP; whereas the gene expression of two downstream effectors inhibited by mTORC1, 4e-BP1 (Eif4ebp1) and ULK1 (Ulk1), were increased as well, indicating an overall negative regulation of mTORC1 activity (see FIG. 42A and 42B)."}, "[4]": {"test_system": "p70-S6K", "experiment": "p70-S6K (Thr389) phosphorylation by Western blot in mHypoE-46", "format": "cell-based, mouse", "settings": "100 μM BAP for 5, 15, 30, 60 and 90 minutes, serum-starved mHypoE-46", "experimental": "as §1, with “System. […]” for “System.”"}, "[5]": {"experiment": "BAP in the drinking water in CD-1 mice: body weight and water intake", "format": "in vivo", "experimental": "All protocols using mice were approved by the University Animal Care Committee of the University of Toronto and were performed in accordance with the Canadian Council on Animal Care. Animal experiments were performed in three separate animal facilities: Medical Sciences Building (MSB), Centre for Cellular and Biomolecular Research (CCBR) and the Biological Sciences Facility (BSF) due to ongoing construction and housing changes. Facilities and dates are indicated in each experimental cohort. N6-benzylaminopurine (BAP; also called N6-benzyladenine) was obtained from Sigma (B3408, cell culture grade in powder form; CAS number 1214-39-7). Male and female CD-1 mice aged 6-7 weeks were acquired from Charles Rivers and acclimated on a chow diet for one week prior to experimentation. Mice were then weight-matched and placed on either a 60% high fat diet (HFD) or sucrose-matched control diet for 4 weeks (from Research Diets: 60% HFD D12492 and the sucrose-matched control diet […]). After 3 weeks on the diet, mice were acclimated for one week to the drinking apparatus, a 50 mL canonical tube with a drinking tube. After 4 weeks on the diet, the mice were again weight-matched and randomly assigned to either the control or BAP group. […] The average dosages achieved using this method are as follows: male HFD (200 mg/kg/day), male control (157 mg/kg/day), female HFD (189 mg/kg/day), and female control (129.9 mg/kg/day). The mice were exposed continuously to the solutions for a total of 33 days. One week prior to the end of the experiment (day 28), the mice were fasted for 4 hr and underwent intraperitoneal insulin tolerance testing (ITT). After 33 days, the mice were sacrificed, and their tissues were collected. RNA was isolated from the collected hypothalamic and used to quantify gene expression via qRT-PCR."}, "[6]": {"test_system": "insulin receptor subunit beta (InsRb)", "experiment": "Insulin receptor subunit beta protein level by Western blot in mHypoE-46", "format": "cell-based, mouse", "experimental": "as §1\nThe mHypoE-46 neurons were exposed to […] BAP for 16 h followed by RNA isolation. […]"}, "[7]": {"settings": "both 4 and 16 h, validated in mHypoE-46"}}, "data": [{"smiles": "c1ccc(CNc2ncnc3nc[nH]c23)cc1", "note": "[BAP, N6-benzylaminopurine]", "values": [{"measurement": "food intake", "setting": "[1]", "value": "reduced"}, {"measurement": "weight gain", "setting": "[1]", "value": "reduced"}, {"measurement": "AMPK phosphorylation or activation vs vehicle", "setting": "[2]", "value": "significant decrease"}, {"measurement": "4e-BPI (Eif4ebp I), RNA-seq data 4 h", "setting": "[3]; 4 h", "value": "↑"}, {"measurement": "S6K (Rps6kbI), RNA-seq data 4 h", "setting": "[3]; 4 h", "value": "ns"}, {"measurement": "Sestrin2 (Sesn2), RNA-seq data 4 h", "setting": "[3]; 4 h", "value": "↑"}, {"measurement": "TSC2 (Tsc2), RNA-seq data 4 h", "setting": "[3]; 4 h", "value": "ns"}, {"measurement": "ULK I (Ulk I), RNA-seq data 4 h", "setting": "[3]; 4 h", "value": "ns"}, {"measurement": "4e-BPI (Eif4ebp I), RNA-seq data 16 h", "setting": "[3]; 16 h", "value": "↑"}, {"measurement": "S6K (Rps6kbI), RNA-seq data 16 h", "setting": "[3]; 16 h", "value": "↓"}, {"measurement": "Sestrin2 (Sesn2), RNA-seq data 16 h", "setting": "[3]; 16 h", "value": "↑"}, {"measurement": "TSC2 (Tsc2), RNA-seq data 16 h", "setting": "[3]; 16 h", "value": "↑"}, {"measurement": "ULK I (Ulk I), RNA-seq data 16 h", "setting": "[3]; 16 h", "value": "↑"}, {"measurement": "early growth response protein 1 (Egr1) gene expression", "setting": "[3]; [7]", "value": "highly downregulated"}, {"measurement": "early growth response protein 3 (Egr3) gene expression", "setting": "[3]; [7]", "value": "highly downregulated"}, {"measurement": "c-fos gene expression", "setting": "[3]; validated in mHypoE-46", "value": "significantly downregulated"}, {"measurement": "c-jun gene expression", "setting": "[3]; validated in mHypoE-46", "value": "significantly downregulated"}, {"measurement": "p70-S6K (Thr389) phosphorylation (activity)", "setting": "[4]", "value": "significantly downregulated"}, {"measurement": "initial body weight loss", "setting": "[5]; female CD-1, 60% HFD, 10 mM BAP in drinking water (189 mg/kg/day), after 9 days of exposure", "value": 9, "unit": "%"}, {"measurement": "body weight less than control group on same diet at end", "setting": "[5]; female CD-1, 60% HFD, 10 mM BAP in drinking water, 33 days", "value": 3, "unit": "g"}, {"measurement": "initial body weight loss", "setting": "[5]; female CD-1, sucrose-matched control diet, 10 mM BAP in drinking water (129.9 mg/kg/day), after 3 days, quickly regained", "value": 5, "unit": "%"}, {"measurement": "body weight as percentage of starting weight vs vehicle control", "setting": "[5]; female CD-1, sucrose-matched control diet, 10 mM BAP in drinking water, 33 days", "value": "not reduced"}, {"measurement": "peak body weight loss", "setting": "[5]; male CD-1, 60% HFD, 10 mM BAP in drinking water (200 mg/kg/day), peak after 13 days of exposure", "value": 18, "unit": "%"}, {"measurement": "body weight difference, control heavier than BAP group at end of experimental period", "setting": "[5]; male CD-1, 60% HFD, 10 mM BAP in drinking water, 33 days", "value": 11, "unit": "grams"}, {"measurement": "peak body weight loss", "setting": "[5]; male CD-1, sucrose-matched control diet, 10 mM BAP in drinking water (157 mg/kg/day), peak after 12 days", "value": 9, "unit": "%"}, {"measurement": "body weight lighter than non-BAP control at end of experimental period", "setting": "[5]; male CD-1, sucrose-matched control diet, 10 mM BAP in drinking water, 33 days", "value": 4, "unit": "g"}, {"measurement": "InsR protein level in response to cellular insulin resistance, BAP relative to vehicle control", "setting": "[6]; 100 μM BAP 24 h, insulin pre-treatment (100 μM, 24 h)", "value": "no change"}, {"measurement": "basal levels of InsRb protein", "setting": "[6]; 100 μM BAP, 24 hours", "value": "significantly increased"}]}]}
